Laboratory results: patent US9102620B2, “Deuterated N-ethyl-N-phenyl-1,2-dihydro-4-hydroxy-5-chloro-1-methyl-2-oxoquinoline-3-carboxamide, salts and uses thereof” (TEVA PHARMACEUTICAL INDUSTRIES, LTD., priority 2010, dated 2015)
Where “and” joins values, the source holds several entries; their conditions need not be identical. Equal entries are not always repeated. Where two headings read alike, the source gives them in different places.

Experiments:
[1] = Pharmacokinetic profile in rat plasma following oral administration; format: in vivo
Method: The main objectives of this example were: • Quantification of Compound 1, Compound 2, Compound 3 and Laquinimod in rat plasma using LC/MS/MS bioanalytical method. • Characterization of the pharmacokinetic profile of Compound 1, Compound 2, Compound 3 and Laquinimod following oral (PO) administration at a dose of 0.2 mg/kg. • The measurement DELAQ concentrations in the collected plasma samples. Rats cannulated at the right common jugular vein by polyethylene tubing were used. In the in-life part, three cannulated female rats were treated with each of the four test articles at dose of 0.2 mg/kg. Blood was withdrawn from the rats at five different time points for the preparation of plasma. The concentrations of Compound 1, Compound 2, Compound 3, laquinimod, and DELAQ were determined in these plasma samples, using applicable LC/MS/MS methods. Oral administration was performed by oral gavage at a dosage volume of 5 ml/kg using a blunt feeding stainless steel needle (Popper & Sons, USA). Body weights were measured before dose administration and doses were calculated on the basis of individual body weight. Blood were withdrawn from animals at the following time points: 1, 2, 4, 8 and 24 hours after dosing as detailed in the table below. The actual sampling time were recorded. Each animal was restrained firmly. After the removal of the seal the port of the cannula was accessed with an appropriate blunted needle mounted on a syringe containing PBS. After having withdrawn approximately 100 μL of blood, the syringe was changed to a clean heparinized syringe. Approximately 250 μL of blood was collected for the preparation of plasma. The first 100 μL fraction of blood was returned and 250 μL of PBS was given to the animal through the catheter. The catheter was filled by heparinized glycerol (100 IU/ml) solution prepared by mixing 10 ml stock heparin (200 IU/ml) with 10 ml of sterile glycerol (d=1.26 g/mL). Blood specimens were mixed immediately and were placed on water ice. Whole blood was centrifuged at 2500 g for 10 min at 4° C., and the separated plasma was transferred into pre-labeled polypropylene tubes and the tubes were frozen at −70° C. within 70 minutes of collection. The concentrations of test items (Compound 1, Compound 2, Compound 3 and Laquinimod) and the concentration of DELAQ were determined in the plasma samples by using reliable LC/MS/MS assay. Pharmacokinetic parameters were calculated and the mean plasma levels versus time curves were evaluated. The following pharmacokinetic parameters were determined from the mean plasma concentration-time data (mean of three animals at each time point) of Compound 1, Compound 2, Compound 3 and Laquinimod.

MOG induced EAE = MOG induced EAE in C57BL/6 mice; format: in vivo; conditions: 10 mg/kg orally, daily; for Mortality: Day 0 to Day 30; for % inhibition 1 (according to incidence) / % inhibition 2 (according to MMS) / % inhibition 3 (according to GMS): compared to vehicle; for Incidence: sick mice/group
CYP1A2 = conditions: human, 3 days; for Enzyme activity, Phenacetin O-dealkylation (CYP1A2) / Percent positive control, Phenacetin O-dealkylation (CYP1A2) activity: hepatocytes
Method: (§1) After treatment, the cells were incubated in situ with marker substrates for the analysis of phenacetin O-dealkylation (marker for CYP1A2) and midazolam 1′-hydroxylation (marker for CYP3A4/5) by LC/MS/MS.
Incubations of hepatocytes with probe substrates were conducted in accordance with SOP L5041.02. Approximately 24 hours after the last treatment, spent media was aspirated from the wells, and each well was rinsed two times with pre-warmed (37±2° C.) fresh culture media. Media was aspirated from the wells and reactions were started by addition of 200 μL pre-warmed media containing the probe substrate to each well. […] At 30 minutes, an aliquot (150 μL) of the incubation mixture was removed and added to a well of a 96-well plate containing 300 μL of stop reagent (acetonitrile) and internal standard (Table 2). The mixtures were mixed thoroughly and allowed to sit for at least 15 minutes at 2-8° C. Samples were centrifuged at 2000×g for 10 minutes at 2-8° C., and supernatant fractions were analyzed by LC/MS/MS.
All analyses were performed with validated LC/MS/MS methods. The procedures used for the analysis of each metabolite followed the applicable LC/MS/MS analytical method SOPs and are summarized in Table 2. The MS equipment was either an ABI Sciex (Applied Biosystems/MDS SCIEX) API 4000 or API 3000 instrument with Shimadzu HPLC pumps and autosampler systems.
Individual rates of reaction from like treatment groups were averaged, and for those groups with n≧3, standard deviations were determined. Fold increases were determined by dividing the enzymatic rate for each treatment group by that of the vehicle control. Percent positive control was calculated with the following equation: […]

CYP1A2 mRNA = conditions: human, 3 days
Method: as §1
Approximately 24 hours after the last treatment, hepatocytes were lysed in TRIzol reagent after the in situ marker substrate incubations, and cell lysates were stored at −75±5° C. For human hepatocyte preparation H971, media from six wells per treatment group was aspirated, and approximately 132 μL TRIzol were added to each well. The cell lysates were mixed by repeated pipetting. Total RNA was isolated from the cell lysates using the TRIzol protocol (Invitrogen) and was purified using the RNeasy Mini Kit (Qiagen Inc.) according to SOP L6161.02. RNA quality and concentration were determined by measuring absorbance at 260 and 280 nm on a BioTek Synergy HT plate reader (BioTek Instruments, Inc.) with KC4 Signature software (version 3.4 Rev 21, BioTek Instruments, Inc.) according to SOP L6162.02. The analysis of RNA integrity was carried out with the RNA 6000 Nano Assay Kit on an Agilent 2100 Bioanalyzer (Agilent Technologies, Inc.) according to SOP L6162.02. Single-stranded cDNA was prepared from RNA with the RT Master Mix using the AB 7300 Real Time PCR system thermocycling program or AB 7900HT Fast Real Time PCR System thermocycling program (Applied Biosystems) according to SOP L6160.04. […] The RT Master Mix was added to each RNA sample to complete the components of the reaction. No template controls (NTCs) were included in the analysis. For the NTC reactions, RNase-free water was added in place of the RNA sample. The cDNA prepared samples were stored at −20±5° C. prior to analysis by qRT-PCR.
Quantitative RT-PCR was carried out according to SOP L6160.04 (XenoTech, LLC) and the Applied Biosystems protocol. Each PCR was performed in triplicate. A Primer Mix was prepared for each Gene Expression assay. A typical Primer Mix contained TaqMan Universal Master Mix (1×), Gene Expression Assay (1×, 900 nM forward and reverse primers) and RNase-free water. The Reaction Mix was prepared by adding the Primer Mix to cDNA. A percentage of samples (no less than 10%) included NACs. […] The relative quantity of the target cDNA compared with that of the control cDNA (GAPDH) was determined by the ΔΔCt method (Applied Biosystems User Bulletin #2). Relative quantification measures the change in mRNA expression in a test sample relative to that in a control sample (e.g., DMSO). This method assumes that the efficiency of the target amplification and the efficiency of the endogenous control amplification are approximately equal.
For qRT-PCR, data were processed using the Sequence Detection System (SDS) Software version 1.4, for Relative Quantification (Applied Biosystems). This software analyzes relative gene expression using the comparative Ct method (ΔΔCt), which relates the PCR signal of the target transcript to the PCR signal of the target in an untreated control. Both the treated sample and the untreated control signals are normalized to the endogenous control (GAPDH), for which expression is not affected by treatment and expression is constant throughout the tissue being tested. […] Calculations are as follows: ΔCt=Ct(target)−Ct(endogenous control) 1. ΔΔCt=ΔCt(treated sample)−ΔCt(untreated control) 2. Fold change in expression=2−ΔΔCt 3.
The level of mRNA expression relative to the positive control was calculated as follows: […]

[2] = female, rat, po, 0.2 mg/kg, Average of rats
[3] = female, rat, po, 0.2 mg/kg, Average of rats, read-out: Cmax
[4] = female, rat, po, 0.2 mg/kg, Average of rats, read-out: Tmax
[5] = female, rat, po, 0.2 mg/kg, individual rats
[6] = female, rat, po, 0.2 mg/kg, individual rats, read-out: Cmax
[7] = female, rat, po, 0.2 mg/kg, individual rats, read-out: Tmax
[8] = individual rats, oral 0.2 mg/kg

Row | Structure (SMILES) | AUC(0-inf) [1, 2] [ng·h/mL] | AUC(0-t) [1, 2] [ng·h/mL] | half-life [1, 2] [h] | Cmax [1, 3] [ng/mL] | Tmax [1, 4] [h] | AUC(0-inf) [1, 5] [ng·h/mL] | half-life [1, 5] [h] | Cmax [1, 6] [ng/mL] | Tmax [1, 7] [h] | AUCinf [1, 8] | AUClast [1, 8] | Cmax [1, 8] | T1/2 [1, 8] | Tmax [1, 8] [h] | GMS value (group mean score) (MOG induced EAE) | MMS value (mean maximal score) (MOG induced EAE) | Mean Duration (MOG induced EAE) [days] | Mean Onset (MOG induced EAE) [days] | activity in inhibition of EAE clinical signs compared to laquinimod (MOG induced EAE) | Mortality (MOG induced EAE) | further results
1 | [2H]c1c([2H])c([2H])c(N(CC)C(=O)c2c(O)c3c(Cl)cccc3n(C)c2=O)c([2H])c1[2H] [Compound 1, N-ethyl-N-D5-phenyl-1,2-dihydro-4-hydroxy-5-chloro-1-methyl-2-oxoquinoline-3-carboxamide] | 13800 | 10400 | 11.3 | 774 | 1.8 | 19300 | 13.4 | 945 | 1 | 13617.9 ng·h/mL and 9733.8 ng·h/mL and 12447.9 ng·h/mL | 10011.7 ng·h/mL and 8039.3 ng·h/mL and 10061.6 ng·h/mL | 730.7 ng/mL and 611.9 ng/mL and 809.5 ng/mL | 12.1 h and 9.5 h and 10.0 h | 2.0 | 0.74 ± 0.86 | 1.5 ± 1.7 | 7.9 ± 8.2 | 22.1 ± 8.9 | no significant difference in activity | 0/15 | AUC(0-t) [1, 5]: 13700 ng·h/mL; % inhibition 1 (according to incidence) (MOG induced EAE): 42.9%; % inhibition 2 (according to MMS) (MOG induced EAE): 53.1%; % inhibition 3 (according to GMS) (MOG induced EAE): 66.5%; Incidence (MOG induced EAE): 8/15
2 | [2H]c1c([2H])c([2H])c(N(C(=O)c2c(O)c3c(Cl)cccc3n(C)c2=O)C([2H])([2H])C([2H])([2H])[2H])c([2H])c1[2H] [Compound 3, N-D5-ethyl-N-D5-phenyl-1,2-dihydro-4-hydroxy-5-chloro-1-methyl-2-oxoquinoline-3-carboxamide] | 15800 | 10500 | 12.4 | 835 | 1.4 | 15800 | 11.5 | 908 | 1 | 18246.2 ng·h/mL and 15225.2 ng·h/mL and 14845.1 ng·h/mL and 14643.7 ng·h/mL | 12110.0 ng·h/mL and 12471.5 ng·h/mL and 11280.4 ng·h/mL and 5317.8 ng·h/mL and 11156.0 ng·h/mL | 800.4 ng/mL and 728.9 ng/mL and 833.2 ng/mL and 904.3 ng/mL | 14.4 h and 12.7 h and 12.0 h and 11.6 h | 2.0 | 0.89 ± 0.94 | 1.6 ± 1.6 | 9.6 ± 9.4 | 21.5 ± 9.3 | no significant difference in activity | 0/15 | % inhibition 1 (according to incidence) (MOG induced EAE): 28.6%; % inhibition 2 (according to MMS) (MOG induced EAE): 50.1%; % inhibition 3 (according to GMS) (MOG induced EAE): 59.7%; Incidence (MOG induced EAE): 10/15
3 | COCC(=O)O[C@]1(CCN(C)CCCc2nc3ccccc3[nH]2)CCc2cc(F)ccc2[C@@H]1C(C)C [Mibefradil] | – | – | – | – | – | – | – | – | – | – | – | – | – | – | – | – | – | – | – | – | Fold Increase, Phenacetin O-dealkylation (CYP1A2) activity (CYP1A2; 10 μM): 3.76 fold; Enzyme activity, Phenacetin O-dealkylation (CYP1A2) (CYP1A2; 10 μM): 11.3 ± 2.1 pmol/mg protein/min; Percent positive control, Phenacetin O-dealkylation (CYP1A2) activity (CYP1A2; 10 μM): 10.1%; mRNA Fold increase, CYP1A2 (CYP1A2 mRNA; 10 μM): 0.423 fold; decrease in CYP1A2 mRNA levels compared to vehicle control (CYP1A2 mRNA; hepatocytes, 10 μM): 57.7%; mRNA Percent positive control, CYP1A2 (CYP1A2 mRNA; hepatocytes, 10 μM): −7.61%
4 | COc1ccc2[nH]c([S+]([O-])Cc3ncc(C)c(OC)c3C)nc2c1 (centres unmarked) [Omeprazole] | – | – | – | – | – | – | – | – | – | – | – | – | – | – | – | – | – | – | – | – | Enzyme activity, Phenacetin O-dealkylation (CYP1A2) (CYP1A2; 100 μM): 84.9 ± 5.4 pmol/mg protein/min; Percent positive control, Phenacetin O-dealkylation (CYP1A2) activity (CYP1A2; 100 μM): 100%; mRNA Fold increase, CYP1A2 (CYP1A2 mRNA; 100 μM): 8.58 fold; mRNA Percent positive control, CYP1A2 (CYP1A2 mRNA; hepatocytes, 100 μM): 100%
